# Results reported in US10759754B2, “Aminobenzoic acid derivatives for use as anti-inflammatory agents, anti-metastatic agents and/or anticancer agents” (3R VALO, S.E.C., priority 2016, dated 2020).
# “Also recorded” adds a separate entry of the source.
# Legend:
# [1] = tested on: MB49-I cells; assay: LPS/IFNγ-induced NO production in MB49-I cells; format: cell-based, murine; details: compound 4 at 30 μM, compound 12 at 10, 20, 37.5 and 50 μM
# Description: Evaluation of NO and Urea production by chemical methods. The MB49-I cells and the J774A.1 cells (25×10^3 cells/well) were grown and pretreated, as indicated, with various anti-inflammatory derivatives, precursors and mono-functional derivatives for a period of 3 h. […] NO production was measured using the Griess reagent method as previously described.^27 This method involves the detection of nitrite ions (NO2^−) formed by the spontaneous oxidation of NO under physiological conditions. According the manufacture procedure (Life Technologies; # G-7921), equal volumes of sulfanilic acid and N-(1-naphthyl)ethylenediamine are mixed together to form the Griess reagent. In the presence of NO2^−, sulfanilic acid is converted to a diazonium salt, which in turn is coupled to N-(1-naphthyl)ethylenediamine to produce a pink coloration that is measured with a spectrophotometer (Biotek, synergy HT) at 548 nm. In the same manner, urea synthesis through arginase-1 activity was measured using commercially available kit.
# [2] = tested on: peritoneal macrophages; assay: NO and urea production in peritoneal macrophages after in vivo treatment of MB49 tumor-bearing mice; details: treatment at 90 and 150 μM; macrophages recovered day 26
# Description: Evaluation of NO and Urea production by chemical methods. The MB49-I cells and the J774A.1 cells (25×10^3 cells/well) were grown and pretreated, as indicated, with various anti-inflammatory derivatives, precursors and mono-functional derivatives for a period of 3 h. Afterwards the cells were washed twice with 10% FBS RPMI-1640 and then activated to produce NO for a period of 24 h with cytokines INFγ and TNFα. NO production was measured using the Griess reagent method as previously described.^27 This method involves the detection of nitrite ions (NO2^−) formed by the spontaneous oxidation of NO under physiological conditions. […] In the presence of NO2^−, sulfanilic acid is converted to a diazonium salt, which in turn is coupled to N-(1-naphthyl)ethylenediamine to produce a pink coloration that is measured with a spectrophotometer (Biotek, synergy HT) at 548 nm. In the same manner, urea synthesis through arginase-1 activity was measured using commercially available kit.
# Ectopic UBC model. […] Growth rates of the s.c. tumors were monitored. The size of tumors was determined every 3 days for 24-28 days using a digital caliper and by measuring luciferin luminescence at days 15 and 25 using the IVIS imaging system. A blinded observer measured tumor length and width. […]
compound,measurement,setting,value
"CC(C)(C)OC(=O)NNC(=O)c1ccc(N2C(=O)C=CC2=O)cc1 [Compound 4, N′-[4-(2,5-dioxo-2,5-dihydro-pyrrol-1-yl)-benzoyl]-hydrazine carboxylic acid tert-butyl ester]",LPS/IFNγ-induced NO synthesis,[1],inhibitory effect
same,NO production in peritoneal macrophages,[2],significant decrease; also recorded: significantly decrease
same,urea synthesis and release in peritoneal macrophages,[2],significant decrease; also recorded: significantly decrease
